Consider ten compounds from patent US8722864B2 (Nutek Pharma Ltd., priority 2010, dated 2014).

Several values for one entry are separate records, joined by “and”; a condition that tells them apart may be missing. Equal entries are not always repeated. Where only a bound is given, the exact number is not on record here.

The nature of data set [1]: Solution stability (hydrolysis) in phosphate-buffered D2O at pD 5, 6, 7 monitored by 1H NMR. The data set is classed as physicochemical. Conditions: for stability to the pD's (in words): pD 5, 6, 7 in D2O; for Time to % hydrolysis t10% / Time to % hydrolysis t25% / Time to % hydrolysis t50%: 23° C.; for change in 1H NMR spectra: after 167 days, pD 5, 6, 7. Here is the method:
10 mL (11.07 g) D2O was placed in 3 separate vials with a stir bar and 0.002 moles (0.272 g) monobasic potassium phosphate (KH2PO4) was added to each. With the pD metered, NaOD/D2O was added drop-wise to each to adjust the pD's to 5.0, 6.0, and 7.0. Each of these solutions was gently boiled before use. Thus each vial contained […] phosphate buffered solution. […] The sample was sterilized by heating for 10 seconds, and after it had cooled down to ambient temperature (about 1 minute), 0.3 mL of one of the 0.2 mM 3 buffered solutions was added. The 0.6 mL sample was then placed in a sterilized NMR tube and the tube sealed and labeled. Each of the samples was stored at 23° C. protected from the light and monitored by ^1H NMR (64 scans for each sample) periodically.

The nature of data set [2]: Water (D2O) solubility by 1H NMR against DSS standard. The data set is classed as physicochemical. Conditions: for solubility at 3 days: water, thermodynamic from solid. Here is the method:
The method use involved stirring the sample in D2O for a period of 3 days, followed by filtration using a 0.2μ syringe filter. A measured volume of this saturated solution was diluted with a standard solution of DSS in D2O, and a ^1H NMR was taken. Integration of the DSS peaks compared to that of the analog would allow for the determination of its concentration, and thus the concentration of the saturated solution.

For data set [3] the following is noted: rat, in vivo, iv; for AUCinf/AUClast of the pro-drug: male, Sprague-Dawley.
A short description of the next data set: in vivo. As to conditions: male, Sprague-Dawley, rat, iv.
For data set [4] the following is noted: water; cited from earlier work.
The nature of data set [5]: Pharmacokinetics after intravenous administration in male Sprague-Dawley rats.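 As to all read-outs here: rats fasted overnight before dosing and fed about 4 h afterwards, with serial blood sampled through a carotid artery catheter at each time point.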 As to conditions: for mean concentration of acetaminophen in rat plasma or blood: 66 μmol/kg nominal, plasma (blood for 18, 19).
[6] abbreviates: stirred 3 days in D2O, 0.2 μ filtered.
[7] abbreviates: acetaminophen analyte after IV dose of acetaminophen or pro-drug, rat.

On to `CC(=O)Nc1ccc(O[C@@H]2C=C[C@H](O)[C@@H](CO)O2)cc1` [compound 1, N-(4-((2R,5S,6R)-5-hydroxy-6-(hydroxymethyl)-5,6-dihydro-2H-pyran-2-yloxy)phenyl)acetamide], for which, in data set [1], the “stability to the pD's (in words)” value is “least stable”. In data set [1] (pD 5, D2O), the “Time to % hydrolysis t10%” value was 0.3 days, the “Time to % hydrolysis t25%” value worked out at 0.8 days and the “Time to % hydrolysis t50%” value is on record as 2.0 days. In data set [1] (pD 6, D2O), the “Time to % hydrolysis t10%” value was 2.25 days, the “Time to % hydrolysis t25%” value was found to be 6.25 days and the “Time to % hydrolysis t50%” value turned out to be 17 days. Besides, in data set [1] (pD 7, D2O), the “Time to % hydrolysis t10%” value is 5.5 days, the “Time to % hydrolysis t25%” value is 26 days and the “Time to % hydrolysis t50%” value amounted to 70 days. In addition, in data set [2], the relative molar solubility is recorded as 0.6; the solubility at 3 days is 14000 µg/mL and 53000 µM.
For the compound `CC(=O)Nc1ccc(O[C@H]2O[C@H](CO)[C@@H](O[C@H]3O[C@H](CO)[C@@H](O)[C@H](O)[C@H]3O)[C@H](O)[C@@H]2O)cc1` [compound 5, 1-(4-acetaminophenoxy) 2-epi maltose], the “change in 1H NMR spectra” value in data set [1] is recorded as “no change”. Besides, in data set [3], the “AUCinf/AUClast of the pro-drug” value was found to be 106%, the “AUC of the pro-drug (in words)” value is listed as “high” and the “half-lives of the pro-drug (in words)” value was “relatively high”. Further, in data set [2], the relative molar solubility is on record as more than 14; the “solubility (in words)” value is “highest solubility”; the solubility at 3 days is > 621000 µg/mL and > 1.3e+06 µM. Moreover, in the data set “in vivo”, the total exposure AUC(0-inf) was 1.69 µM·h, the AUC(0-t) is 1.57 µM·h, the C0 is 2.49 µM and the MRT inf was determined as 39.2 min. Further, in “in vivo”, the distribution volume (Vd) worked out at 26.8 L/kg, the clearance amounted to 759 mL/min/kg and the half-life is 79.2 min.
With `CC(=O)Nc1ccc(O[C@H]2O[C@H](CO)[C@@H](O)[C@H](O)[C@@H]2O)cc1` [compound 8, 1-(4′-acetamidophenoxy) mannose], the “change in 1H NMR spectra” value in data set [1] is on record as “no change”. Besides, in data set [3], the “AUCinf/AUClast of the pro-drug” value worked out at 100% and the “AUC of the pro-drug (in words)” value is “low”. In data set [2], the relative molar solubility is on record as 1.8; the solubility at 3 days is 51000 µg/mL and 164000 µM. In the data set “in vivo”, this compound registered an AUC(0-inf) of 44.9 µM·h, an AUC(0-t) of 44.9 µM·h, a C0 of 336 µM and an MRT inf of 14.2 min. In the data set “in vivo”, the distribution volume (Vd) was 0.349 L/kg, the clearance came out at 24.7 mL/min/kg and the half-life was 39.5 min.
`CC(=O)Nc1ccc(O[C@@H]2CCC(O)[C@@H](CO)O2)cc1` (some centres unmarked) [compound 12, 1-(4′-acetamidophenoxy) 2,3-dideoxy glucose]: the “stability to the pD's (in words)” value in data set [1] is given as “a lot of instability”. In data set [1] (pD 5, D2O), the “Time to % hydrolysis t10%” value worked out at 7 days, the “Time to % hydrolysis t25%” value turned out to be 20 days and the “Time to % hydrolysis t50%” value turned out to be 58 days. Also, in data set [1] (pD 6, D2O), the “Time to % hydrolysis t10%” value is listed as 48 days. In addition, in data set [2], the relative molar solubility is listed as 0.3; the solubility at 3 days is 9000 µg/mL and 31000 µM.
Regarding `CC(=O)Nc1ccc(O[C@H]2O[C@H](COC(C)=O)[C@@H](O)[C@H](O)[C@@H]2O)cc1` [compound 15], in data set [3], the “AUCinf/AUClast of the pro-drug” value was found to be 100% and the “AUC of the pro-drug (in words)” value was “low”. In data set [2], the relative molar solubility was 5.6; the solubility at 3 days is 203000 µg/mL and 570000 µM. In the data set “in vivo”, this compound showed an AUC(0-inf) of 14.2 µM·h, an exposure AUC(0-t) of 14.2 µM·h, a C0 of 95.8 µM and an MRT inf of 10.2 min. In addition, in “in vivo”, the distribution volume (Vd) was 0.8 L/kg, the clearance turned out to be 78.7 mL/min/kg and the half-life was 13.2 min.
For `CCCC(=O)OC[C@H]1O[C@H](Oc2ccc(NC(C)=O)cc2)[C@@H](O)[C@@H](O)[C@@H]1O` [compound 18, 1-(4′-acetamidophenoxy)-6-O-butyrylmannose], in data set [3], the “AUCinf/AUClast of the pro-drug” value is listed as 100% and the “AUC of the pro-drug (in words)” value was “low”. Besides, in data set [2], the relative molar solubility amounted to 0.81; the solubility at 3 days was 30000 µg/mL and 77000 µM. In the data set “in vivo”, this compound displayed an AUC(0-inf) of 3.31 µM·h, an area under the curve AUC(0-t) of 3.3 µM·h, a C0 of 43.1 µM and an MRT inf of 4.56 min. In addition, in the data set “in vivo”, the Vd came out at 1.56 L/kg, the clearance amounted to 345 mL/min/kg and the half-life was 3.13 min.
Consider `CC(=O)Nc1ccc(O[C@H]2O[C@H](COC(=O)C(C)C)[C@@H](O)[C@H](O)[C@@H]2O)cc1` [compound 19, 1-(4′-acetamidophenoxy)-6-O-isobutyrylmannose], for which, in data set [3], the “AUCinf/AUClast of the pro-drug” value is given as 100% and the “AUC of the pro-drug (in words)” value is “low”. Moreover, in data set [2], the relative molar solubility is given as 0.43; the solubility at 3 days was 16000 µg/mL and 41000 µM. In addition, in “in vivo”, the area under the curve AUC(0-inf) was found to be 3.68 µM·h, the AUC(0-t) turned out to be 3.68 µM·h, the C0 was 31.1 µM and the mean residence time MRT inf was 8.7 min. In the data set “in vivo”, this compound showed a Vd of 1.77 L/kg, a clearance of 203 mL/min/kg and a half-life of 14.6 min.
As for `CC(=O)Nc1ccc(O[C@H]2O[C@H](COC(=O)CCC(=O)O)[C@@H](O)[C@H](O)[C@@H]2O)cc1` [compound 20], in data set [3], the “AUCinf/AUClast of the pro-drug” value was determined as 100%, the “AUC of the pro-drug (in words)” value is listed as “high” and the “half-lives of the pro-drug (in words)” value is listed as “relatively high”. In “in vivo”, this compound showed an AUC(0-inf) of 51.9 µM·h, an AUC(0-t) of 51.8 µM·h, a C0 of 218 µM and a mean residence time MRT inf of 25.2 min. In the data set “in vivo”, this compound had a distribution volume (Vd) of 0.549 L/kg, a clearance of 22.7 mL/min/kg and a half-life of 123 min.
With `CC(=O)Nc1ccc(O[C@H]2O[C@H](C)[C@@H](O)[C@H](O)[C@@H]2O)cc1` [compound 23, 1-(4′-acetamidophenoxy)-6-deoxymannose], in data set [3], the “AUCinf/AUClast of the pro-drug” value was 100%, the “AUC of the pro-drug (in words)” value is recorded as “high” and the “half-lives of the pro-drug (in words)” value is “relatively high”. Moreover, in data set [2], the relative molar solubility was determined as 2.1; the solubility at 3 days is 60000 µg/mL and 202000 µM. In “in vivo”, this compound registered a total exposure AUC(0-inf) of 44.1 µM·h, an AUC(0-t) of 44 µM·h, a C0 of 123 µM and an MRT inf of 52.7 min. In addition, in “in vivo”, the Vd was 1.58 L/kg, the clearance worked out at 24.9 mL/min/kg and the half-life was 116 min.
Consider acetaminophen, for which the “change in 1H NMR spectra” value in data set [1] is on record as “no change”. In addition, the “D2O solubility (mM)” value in data set [2] (setting [6]) came to 95 mM. Further, in data set [2] (setting [6]), the “D2O solubility (mg/mL)” value is reported as 13 mg/mL. Besides, in data set [4], the “literature value of acetaminophen's solubility” value is 14 mg/mL. Besides, the “mean concentration of acetaminophen in rat plasma or blood” value is 133.854 µM in data set [5] (2 min after IV dose of acetaminophen or pro-drug); 89.75 µM in data set [5] (5 min after IV dose of acetaminophen or pro-drug); 45.118 µM in data set [5] (0.250 h after IV dose of acetaminophen or pro-drug); 23.661 µM in data set [5] (0.500 h after IV dose of acetaminophen or pro-drug); 0.823 µM in data set [5] (2.00 h after IV dose of acetaminophen or pro-drug); 0.528 µM in data set [5] (4.00 h after IV dose of acetaminophen or pro-drug). The “mean concentration of acetaminophen in rat plasma or blood” value in data set [5] (6.00 h after IV dose of acetaminophen or pro-drug) worked out at 0.237 µM; in data set [5] (8.00 h after IV dose of acetaminophen or pro-drug), 0.108 µM. This compound came in with an AUCinf of acetaminophen in data set [5] (setting [7]) of 41.231 µM·h. The AUCinf/AUClast of acetaminophen in data set [5] (setting [7]) is 100%. The same compound returned an AUClast of acetaminophen in data set [5] (setting [7]) of 41.031 µM·h. Moreover, in data set [5] (setting [7]), the MRTinf of acetaminophen came out at 39.7 min. Moreover, in data set [5] (setting [7]), the Vdss of acetaminophen is on record as 1.06 L/kg. In addition, in data set [5] (setting [7]), the “t1/2 of acetaminophen from the pro-drug” value turned out to be 148 min. The C0 in data set [5] (read-out: C0 of acetaminophen, acetaminophen analyte after IV dose of acetaminophen or pro-drug, extrapolated to time 0) was 175 µM.
